The results in this text go back to patent publication US20240130368A1, “HERBICIDAL COMPOSITION” (Nippon Soda Co., Ltd., priority 2021, published 2024).

The test relates to Ambrosia artemisiifolia. The experiment in a line: Test Example 1: seeds on filter paper moistened with chemical solution, herbicidal effect visually evaluated. The note with it: visually evaluated 6 days after treatment. It is filed as in vivo. The method, then: As the compound (1), 1-methoxy-3-methyl-6-(1,1-dioxido-8-(trifluoromethyl)thiochroman-5-yl)-7-oxa-3,4-diazabicyclo[4.1.0]hept-4-en-2-one (Compound (I-3)) was used.
The compound (I) or compound (II) was prepared into a 5% emulsion using DMF (containing 1.5% Tween) and diluted with water to a prescribed dosage concentration. Commercially available preparations were dissolved in water and adjusted to a prescribed dosage concentration.
Seeds were soaked in 0.6% sodium hypochlorite for a predetermined time for surface sterilization and washed with water for use (seed disinfection). Seeds of Ambrosia artemisiifolia were used for the test.
Filter paper was placed on a cup (diameter: 10 cm, height: 4 cm) with a lid and moistened with 8 ml of chemical solution, and seeds were sown thereon, and after covering with a lid, grown in a constant temperature room.
The herbicidal effects were visually evaluated, 6 days after the treatment, as the herbicidal effect (%), by comparing with a state of an untreated group using a total of 21 scores of withering index from 0 to 20 (0: mortality rate equivalent to that of the untreated group, 20: mortality rate of 100%).
In addition, the expected values of the herbicidal effects were calculated from the herbicidal effects in a case where the compound (I) alone was applied and the herbicidal effects in a case where the compound (II) alone was applied by using the Colby's formula (Colby, S. R., Calculating synergistic and antagonistic responses of herbicide combinations, Weeds, 15, pp. 20-22 (1967)).
M indicates an herbicidal effect (%) in the application of the compound (I) alone, N indicates an herbicidal effect (%) in the application of the compound (II) alone, and E indicates an expected value (%) of the herbicidal effect in the combined application of the compound (T) and the compound (TT). When the actual measured value (%) of the herbicidal effect in the combined application of the compound (I) and the compound (II) is greater than the expected value E, it can be regarded that the combined application of the compound (I) and the compound (II) has a synergistic effect.

Where [1] appears, read: Ambrosia artemisiifolia, 144 h, compound applied alone, amount of active ingredient 3.1 ppm, read-out: Herbicidal effect (%).
The mark [2] stands for this setting: Ambrosia artemisiifolia, 144 h, compound applied alone, amount of active ingredient 0.8 ppm, read-out: Herbicidal effect (%).
[3] abbreviates: Ambrosia artemisiifolia, 144 h, applied alone, amount of active ingredient 50 ppm, read-out: Herbicidal effect (%).
Setting [4] is: Ambrosia artemisiifolia, 144 h, read-out: Herbicidal effect (%), applied alone, amount of active ingredient 12.5 ppm.
Where [5] appears, read: Ambrosia artemisiifolia, 144 h, applied alone, amount of active ingredient 0.2 ppm, read-out: Herbicidal effect (%).
Setting [6] is: compound applied alone, amount of active ingredient 12.5 ppm.
The mark [7] stands for this setting: Ambrosia artemisiifolia, 144 h, applied alone, amount of active ingredient 0.8 ppm, read-out: Herbicidal effect (%).
[8] abbreviates: Ambrosia artemisiifolia, 144 h, compound applied alone, amount of active ingredient 0.2 ppm, read-out: Herbicidal effect (%).
Setting [9] is: Ambrosia artemisiifolia, 144 h, compound applied alone, amount of active ingredient 0.012 ppm.

Where two headings read alike, the source gives them in different places.

Take 2,4-D amine: the “Herbicidal effect (%)” value (applied alone, amount of active ingredient 0.05 ppm) was 20%.

In the case of `Cc1ccccc1CO[C@@H]1C[C@@]2(C(C)C)CC[C@]1(C)O2` (racemic) [Cinmethylin], the pest or weed control at 3.1 ppm under setting [1] came out at 50%.

For `CCCCC(CC)COC(=O)COc1ccc(Cl)cc1Cl` (stereo not drawn) [2,4-D 2-ethylhexyl ester], the “Herbicidal effect (%)” value (applied alone, amount of active ingredient 0.8 ppm) is reported as 50%.

For the compound `Nc1c([N+](=O)[O-])ccc(Oc2ccccc2)c1Cl` [Aclonifen], under “Ambrosia artemisiifolia, 144 h, compound applied alone, amount of active ingredient 50 ppm, read-out: Herbicidal effect (%)”, the pest or weed control at 50 ppm is 20%.

Turning to `CCc1cccc(CC)c1N(COC)C(=O)CCl` [Alachlor], the pest or weed control at 0.8 ppm under setting [2] came to 20%.

Take `CC(C)c1nn(C(=O)NC(C)(C)C)c(=O)n1N` [Amicarbazone]: the “Herbicidal effect (%)” value (applied alone, amount of active ingredient 50 ppm) came out at 0%.

As for `Nc1nc[nH]n1` [Amitrole], the pest or weed control at 3.1 ppm under setting [1] amounted to 20%.

As for `COC(=O)NS(=O)(=O)c1ccc(N)cc1` [Asulam], the pest or weed control at 3.1 ppm under setting [1] came out at 20%.

For the compound `CC(C)N1C(=O)c2ccccc2NS1(=O)=O` [Bentazon], the pest or weed control at 200 ppm (Ambrosia artemisiifolia, 144 h, applied alone, amount of active ingredient 200 ppm) came to 20%.

For `N#Cc1cc(Br)c(O)c(Br)c1` [Bromoxynil], the pest or weed control at 3.1 ppm (Ambrosia artemisiifolia, 144 h, applied alone, amount of active ingredient 3.1 ppm, read-out: Herbicidal effect (%)) is 0%.

Take `CCOC(=O)C(Cl)Cc1cc(-n2nc(C)n(C(F)F)c2=O)c(F)cc1Cl` (stereo not drawn) [Carfentrazone-ethyl]: the pest or weed control at 0.8 ppm (Ambrosia artemisiifolia, 144 h, read-out: Herbicidal effect (%), applied alone, amount of active ingredient 0.8 ppm) was determined as 50%.

As to `Cc1ccc(NC(=O)N(C)C)cc1Cl` [Chlorotoluron], under setting [3], the pest or weed control at 50 ppm came to 40%.

As for `CCSC(C)CC1CC(=O)C(/C(CC)=N/OC/C=C/Cl)=C(O)C1` (stereo not drawn) [Clethodim], under setting [4], the pest or weed control at 12.5 ppm was 0%.

As for `CC1(C)CON(Cc2ccccc2Cl)C1=O` [Clomazone], under setting [5], the pest or weed control at 0.2 ppm came out at 10%.

Take `Cc1cccc(C2CC2)c1Oc1nnc(Cl)cc1OC(=O)N1CCOCC1` [Cyclopyrimorate]: the “Herbicidal effect (%)” value under setting [6] is recorded as 40%.

`COc1c(Cl)ccc(Cl)c1C(=O)O` [Dicamba]: the pest or weed control at 0.8 ppm under setting [7] amounted to 30%.

Consider `O=C(Nc1ccc(F)cc1F)c1cccnc1Oc1cccc(C(F)(F)F)c1` [Diflufenican], for which the pest or weed control at 0.2 ppm under setting [8] came to 10%.

With `C/C(=N\NC(=O)Nc1cc(F)cc(F)c1)c1ncccc1C(=O)[O-].[Na+]` [Diflufenzopyr-sodium], the “Herbicidal effect (%)” value under setting [6] came to 20%.

For the compound `COC[C@H](C)N(C(=O)CCl)c1c(C)csc1C` [Dimethenamid-P], the “Herbicidal effect (%)” value (compound applied alone, amount of active ingredient 0.8 ppm) was 30%.

As to `c1cc[n+]2c(c1)-c1cccc[n+]1CC2` [Diquat], the pest or weed control at 0.2 ppm (Ambrosia artemisiifolia, 144 h, read-out: Herbicidal effect (%), compound applied alone, amount of active ingredient 0.2 ppm) was determined as 30%.

Regarding `CCOC(=O)COc1ncccc1Oc1cc(-n2c(=O)cc(C(F)(F)F)n(C)c2=O)c(F)cc1Cl` [Epyrifenacil], the “Herbicidal effect (%)” value (compound applied alone, amount of active ingredient 0.0125 ppm) is recorded as 80%.

For `Cc1ccn2nc(S(=O)(=O)Nc3c(F)cccc3F)nc2n1` [Flumetsulam], the pest or weed control at 12.5 ppm (Ambrosia artemisiifolia, 144 h, applied alone, amount of active ingredient 12.5 ppm, read-out: Herbicidal effect (%)) was determined as 40%.

With `C#CCN1C(=O)COc2cc(F)c(N3C(=O)C4=C(CCCC4)C3=O)cc21` [Flumioxazin], the pest or weed control at 0.05 ppm (Ambrosia artemisiifolia, 144 h, applied alone, amount of active ingredient 0.05 ppm, read-out: Herbicidal effect (%)) worked out at 80%.

For `NC(=O)c1nc(-c2ccccc2)n(-c2ccc(Cl)c(COCC(F)(F)C(F)(F)F)c2)n1` [Flupoxam], the pest or weed control at 0.012 ppm under setting [9] was 65%.

Take `Nc1c(Cl)c(F)nc(OCC(=O)O)c1Cl` [Fluroxypyr]: under setting [7], the pest or weed control at 0.8 ppm was 40%.

As for `COc1cc(OC)nc(NC(=O)NS(=O)(=O)c2cc(NC=O)ccc2C(=O)N(C)C)n1` [Foramsulfuron], under setting [7], the pest or weed control at 0.8 ppm worked out at 65%.

In the case of `CP(=O)(O)CCC(N)C(=O)O` (stereo not drawn) [Glufosinate-ammonium], the pest or weed control at 12.5 ppm under setting [4] was 20%.

`O=C(O)CNCP(=O)(O)O` [Glyphosate]: the pest or weed control at 12.5 ppm under setting [4] turned out to be 20%.

Take `COC(=O)c1nc(-c2ccc(Cl)c(OC)c2F)cc(N)c1Cl` [Halauxifen-methyl]: where the note is “compound applied alone, amount of active ingredient 0.012 ppm”, the “Herbicidal effect (%)” value stood at 70%.

`COC(=O)c1c(Cl)nn(C)c1S(=O)(=O)NC(=O)Nc1nc(OC)cc(OC)n1` [Halosulfuron-methyl]: under “Ambrosia artemisiifolia, 144 h, read-out: Herbicidal effect (%), compound applied alone, amount of active ingredient 0.05 ppm”, the pest or weed control at 0.05 ppm was 30%.

On to `COC(=O)C(C)Oc1ccc(Oc2ncc(C(F)(F)F)cc2Cl)cc1` (stereo not drawn) [Haloxyfop-methyl], for which, under setting [4], the pest or weed control at 12.5 ppm amounted to 10%.

Consider `CN(C)c1nc(=O)n(C2CCCCC2)c(=O)n1C` [Hexazinone], for which the pest or weed control at 3.1 ppm under setting [1] worked out at 10%.

`CCC(C)(CC)c1cc(NC(=O)c2c(OC)cccc2OC)on1` [Isoxaben]: under setting [8], the pest or weed control at 0.2 ppm was found to be 75%.

Take `CS(=O)(=O)c1cc(C(F)(F)F)ccc1C(=O)c1cnoc1C1CC1` [Isoxaflutole]: under “Ambrosia artemisiifolia, 144 h, compound applied alone, amount of active ingredient 0.0125 ppm”, the pest or weed control at 0.0125 ppm turned out to be 40%.

Regarding `CON(C)C(=O)Nc1ccc(Cl)c(Cl)c1` [Linuron], the pest or weed control at 12.5 ppm (Ambrosia artemisiifolia, 144 h, compound applied alone, amount of active ingredient 12.5 ppm, read-out: Herbicidal effect (%)) was found to be 10%.

For the compound `Cc1cc(Cl)ccc1OCC(=O)O` [MCPA], the “Herbicidal effect (%)” value (applied alone, amount of active ingredient 0.2 ppm) is 30%.

`CS(=O)(=O)c1ccc(C(=O)C2C(=O)CCCC2=O)c([N+](=O)[O-])c1` [Mesotrione]: the pest or weed control at 0.2 ppm under setting [8] was 50%.

As to `CCc1cccc(C)c1N(C(=O)CCl)C(C)COC` (stereo not drawn) [Metolachlor], under setting [2], the pest or weed control at 0.8 ppm is 10%.

As for `CSc1nnc(C(C)(C)C)c(=O)n1N` [Metribuzin], the pest or weed control at 50 ppm under setting [3] is 0%.

As for `COc1cc(OC)nc(NC(=O)NS(=O)(=O)c2ncccc2C(=O)N(C)C)n1` [Nicosulfuron], the pest or weed control at 0.8 ppm under setting [2] came to 60%.

Consider `CCC(CC)Nc1c([N+](=O)[O-])cc(C)c(C)c1[N+](=O)[O-]` [Pendimethalin], for which the pest or weed control at 0.8 ppm under setting [7] came out at 20%.

`Nc1c(Cl)c(Cl)nc(C(=O)O)c1Cl` [Picloram]: the pest or weed control at 0.8 ppm under setting [7] is 70%.

Take `O=C(Nc1ccc(F)cc1)c1cccc(Oc2cccc(C(F)(F)F)c2)n1` [Picolinafen]: where the note is “applied alone, amount of active ingredient 3.1 ppm”, the “Herbicidal effect (%)” value came to 30%.

Regarding `CCCN(CCC)C(=O)SCc1ccccc1` [Prosulfocarb], the pest or weed control at 0.8 ppm under setting [7] came out at 20%.

Turning to `FC(F)c1cc(-c2c(Cl)cccc2Oc2ncc(Cl)cn2)on1` [Rimisoxafen], for the setting “compound applied alone, amount of active ingredient 0.2 ppm”, the “Herbicidal effect (%)” value was found to be 25%.

`CCS(=O)(=O)c1cccnc1S(=O)(=O)NC(=O)Nc1nc(OC)cc(OC)n1` [Rimsulfuron]: the pest or weed control at 0.2 ppm under setting [5] is 20%.

Regarding `CC(C)N(C)S(=O)(=O)NC(=O)c1cc(-n2c(=O)cc(C(F)(F)F)n(C)c2=O)c(F)cc1Cl` [Saflufenacil], the pest or weed control at 0.0125 ppm (Ambrosia artemisiifolia, 144 h, applied alone, amount of active ingredient 0.0125 ppm) turned out to be 60%.

With `CCC/C(=N\OCC)C1=C(O)CC(CC(C)SCC)CC1=O` (stereo not drawn) [Sethoxydim], the pest or weed control at 0.8 ppm (Ambrosia artemisiifolia, 144 h, read-out: Herbicidal effect (%), compound applied alone, amount of active ingredient 0.8 ppm) was 0%.

For `CCNc1nc(Cl)nc(NCC)n1` [Simazine], the pest or weed control at 50 ppm under setting [3] was 30%.

With `Cc1nn(-c2cc(NS(C)(=O)=O)c(Cl)cc2Cl)c(=O)n1C(F)F` [Sulfentrazone], the pest or weed control at 0.012 ppm under setting [9] came to 0%.

Regarding `CNC(=O)N(C)c1nnc(C(C)(C)C)s1` [Tebuthiuron], the pest or weed control at 50 ppm (Ambrosia artemisiifolia, 144 h, read-out: Herbicidal effect (%), compound applied alone, amount of active ingredient 50 ppm) turned out to be 20%.
